# Patent US20030157583A1, “Methods for determining squalene synthase activity” (priority 2001, published 2003)
# T1: truncated squalene synthase (tSqS) (Arabidopsis thaliana, UniProt P53799)
# T1 sequence (P53799 1-388 limits assumed): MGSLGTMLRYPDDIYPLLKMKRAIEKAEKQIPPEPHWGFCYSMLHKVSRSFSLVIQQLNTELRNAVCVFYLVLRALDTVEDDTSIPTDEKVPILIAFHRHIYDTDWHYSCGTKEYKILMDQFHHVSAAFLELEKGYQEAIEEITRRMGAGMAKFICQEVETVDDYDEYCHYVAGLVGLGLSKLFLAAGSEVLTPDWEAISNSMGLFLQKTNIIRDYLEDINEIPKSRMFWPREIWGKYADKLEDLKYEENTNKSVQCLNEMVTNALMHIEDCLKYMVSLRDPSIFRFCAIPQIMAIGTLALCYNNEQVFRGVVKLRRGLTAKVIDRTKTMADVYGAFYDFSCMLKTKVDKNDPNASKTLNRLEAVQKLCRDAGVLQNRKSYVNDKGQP
# How the values were obtained:
# [1] = target: T1, truncated squalene synthase (tSqS); assay: biochemical
# Text: The conversion of the intermediate PSPP into squalene requires magnesium as a cofactor.
# [2] = substrate: CC(C)=CCC/C(C)=C/CC/C(C)=C/CO[P@@](=O)(O)OP(=O)(O)O; assay: purified protein, by the assay type; settings: other: initial velocity vs FPP concentration, 50 ng tSqS, 100 μM NADPH, 10 mM MgCl2, 37° C., pH 7.5
Molecule,IC50 [1] [mM],Km [2] [µM]
O=C(O)CN(CCN(CC(=O)O)CC(=O)O)CC(=O)O [EDTA],~8,–
truncated squalene synthase (tSqS) (Arabidopsis thaliana) (protein) MGSLGTMLRYPDDIYPLLKMKRAIEKAEKQIPPEPHWGFCYSMLHKVSRSFSLVIQQLNTELRNAVCVFYLVLRALDTVEDDTSIPTDEKVPILIAFHRHIYDTDWHYSCGTKEYKILMDQFHHVSAAFLELEKGYQEAIEEITRRMGAGMAKFICQEVETVDDYDEYCHYVAGLVGLGLSKLFLAAGSEVLTPDWEAISNSMGLFLQKTNIIRDYLEDINEIPKSRMFWPREIWGKYADKLEDLKYEENTNKSVQCLNEMVTNALMHIEDCLKYMVSLRDPSIFRFCAIPQIMAIGTLALCYNNEQVFRGVVKLRRGLTAKVIDRTKTMADVYGAFYDFSCMLKTKVDKNDPNASKTLNRLEAVQKLCRDAGVLQNRKSYVNDKGQP,–,42
